# Measurements as given in US5874597A, “Certain aminosterol compounds and pharmaceutical compositions including these compounds” (priority 1995, dated 1999).
# “Also recorded” adds a separate entry of the source.
# Assays:
# LLC = LLC MTT; type: cell-based; conditions: Lewis lung carcinoma; Table II; read-out: LLC MTT, Minimum Effective Concentration
# [1] = test system: human umbilical venous endothelial cells; assay: LPS/TNF-α-induced neutrophil adherence to human umbilical venous endothelial cells; type: cell-based; conditions: three different subjects; LPS or TNF-α activated
# Text: Methods 109, 1988, 175-184.
# B16 melanoma = assay: suppression of B16 melanoma growth in C57B mice; type: in vivo, mouse
# Procedure: The growth of B16 melanoma in C57B mice is dependent upon neovascularization.
# Using the growth of B16 melanoma cells in C57B mice, a recognized model for the evaluation of inhibitors of angiogenesis on the growth of cancers, the effects of subcutaneous, intraperitoneal and oral administration of squalamine were evaluated.
# Based on the idea that tumor growth involves both the clonal expansion of a malignant cell along with the development of a supporting vascular supply, a combination of compound 1436 with squalamine was tested to determine whether it would achieve a synergistic effect on solid tumor growth. This concept was evaluated in the B16 melanoma model.
# Animals were implanted with B16 melanoma followed by treatment with compound 1436 or 1256 administered in a combined schedule or separately. […] Thus, a combination of these two compounds achieves a therapeutic benefit in tumors dependent on neovascularization that may prevent metastatic spread.
# rabbit NHE3 = rabbit NHE3 (Oryctolagus cuniculus, UniProt P26432); assay: inhibition of rabbit NHE3 in transfected PS120 fibroblasts (internal pH, BCECF-AM)
# Sequence of rabbit NHE3 (P26432 30-832): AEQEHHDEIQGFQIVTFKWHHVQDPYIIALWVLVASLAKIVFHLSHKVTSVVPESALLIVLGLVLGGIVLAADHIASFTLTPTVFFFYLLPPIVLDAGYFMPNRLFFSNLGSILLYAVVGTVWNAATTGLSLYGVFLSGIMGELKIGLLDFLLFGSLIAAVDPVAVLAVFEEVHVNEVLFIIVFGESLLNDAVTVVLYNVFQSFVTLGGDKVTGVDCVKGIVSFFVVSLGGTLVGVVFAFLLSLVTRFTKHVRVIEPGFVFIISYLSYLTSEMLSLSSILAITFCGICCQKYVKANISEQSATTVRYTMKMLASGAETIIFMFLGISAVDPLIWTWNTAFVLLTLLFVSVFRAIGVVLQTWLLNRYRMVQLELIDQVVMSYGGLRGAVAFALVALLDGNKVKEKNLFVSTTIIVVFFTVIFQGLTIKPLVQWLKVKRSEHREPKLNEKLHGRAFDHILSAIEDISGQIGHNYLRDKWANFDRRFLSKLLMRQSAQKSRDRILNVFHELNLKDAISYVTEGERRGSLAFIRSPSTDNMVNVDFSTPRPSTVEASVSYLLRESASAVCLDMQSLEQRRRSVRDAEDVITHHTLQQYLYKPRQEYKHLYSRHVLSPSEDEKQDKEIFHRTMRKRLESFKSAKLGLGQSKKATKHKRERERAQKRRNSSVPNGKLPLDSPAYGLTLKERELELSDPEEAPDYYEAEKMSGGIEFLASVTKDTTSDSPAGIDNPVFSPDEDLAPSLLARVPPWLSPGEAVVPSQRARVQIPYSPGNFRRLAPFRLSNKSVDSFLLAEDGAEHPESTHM
# Procedure: Internal pH was measured either following acid loading or in the absence of an acid-loading challenge, with the results shown in FIGS. 1A and 1B.
# Specifically, PS120 fibroblasts transfected with rabbit NHE3 were grown in supplemented Dulbecco's-modified Eagle's medium as described by Levine et al., J. Biol. Chem. 268, 1993, 25527-25535. […] For cells not acid-preloaded, the actual internal pH value was monitored as a function of time following addition of squalamine, with the results depicted in FIG. 1B.
# PS120 fibroblasts transfected with rabbit NHE3 were grown and acid preloaded by exposure to 40 mM NH4 Cl as described above in conjunction with FIGS. 1A and 1B. Internal cellular pH changes expressed as the rate of pH recovery as a function of restored extracellular sodium ion concentration following exposure to 10 μg/ml of the compound were assayed with the fluorescent dye BCECF-AM as described above.
# [2] = test system: human foreskin fibroblasts; assay: growth inhibition of human fibroblasts; conditions: 10 μg/ml
# [3] = test system: Xenopus tadpole (stage 59-60); assay: Xenopus tadpole assay; type: in vivo, Xenopus laevis; conditions: 10 μg/ml; about 1 hour
# [4] = test system: human epithelial cell line MCF 10A; assay: growth inhibition of human epithelial cells; conditions: 10 μg/ml
# [5] = test system: Human coronary artery smooth muscle cells; assay: proliferation of human coronary artery smooth muscle in vitro; type: cell-based; conditions: FIG. 15
# Text: (§1) As set forth in Table 7 below, all malignant tumors evaluated in tissue culture, endothelial cells and vascular smooth muscle cells were sensitive to inhibition. Thus, compound 1436 has application in the control of growth factor dependent proliferation of many types of tissue.
# Aminosterols of the invention may also have utility in inhibiting the growth factor mediated proliferation of smooth muscle within the artery. Following coronary angioplasty, reocclusion commonly occurs, secondary to reparative proliferation of the vascular smooth muscle within the wall of the surgically manipulated blood vessel. This process generally takes place over the course of 7-10 days. To evaluate whether an agent could prevent the growth factor mediated proliferation of smooth muscle within the artery, compound 1436 was evaluated in vitro for its effect on the proliferation of human coronary artery smooth muscle. Results for compound 1436 are shown in FIG. 13, and those for squalamine are shown in FIG. 14, with FIG. 15 being a composite logarithmic plot.
# [6] = test system: chorioallantoic membrane capillaries; assay: chorioallantoic membrane (CAM) model, inhibition of capillary growth; type: in vivo, chick; conditions: for Percentage positive, Assay 1 / Percentage positive, Assay 2 / Percentage positive, Mean: 3-Day Embryo
# Text: The growing capillaries within the chorioallantoic membrane model (CAM model) have been used as a system in which to evaluate the effect of agents on their potential to inhibit new vessel growth. Neovascularization occurs most aggressively over the first week of embryonic development. Thereafter capillary growth is characterized by principally "elongation" rather than "de novo" formation.
# In the standard assay, agents are applied locally to a region of the embryo over which neovascularization will occur. Agents are assessed by their ability to inhibit this process, as evaluated by visual examination about 7 days after application. […] The assay utilized is described in detail in Auerbach et al., Pharm. Ther. 51, 1991, 1-11.
# [7] = test system: vitelline capillaries of chick embryo; assay: chick embryo vitelline capillary regression assay; type: in vivo; conditions: in vivo
# Procedure: Using the chick embryo vitelline capillaries assay, compounds were tested for their ability to induce capillary regression. Each compound was applied in 0.1 ml of 15% Ficol 400 and PBS onto the embryo, and vascular regression was assessed after 60 minutes.
# The 3-day chick embryo consists of an embryonic disc from which numerous vessels emerge and return, forming a "figure 8"-shaped structure--the embryo in the center with vascular loops extending outward over both poles. […] Following a lag period of around 15 minutes, the constriction of continuity between capillary and secondary vessels, generally on the "venous" side, was observed. Continued pulsatile blood flow progressed, resulting in a "swelling" of the blind tube, followed by a pinching off of the remaining connection and formation of an enclosed vascular sac resembling a "blood island." This process progressed until only the largest vessels remained intact.
# human melanoma 1205Lu = assay: suppression of human melanoma 1205Lu in RAG-1 mice; type: in vivo; conditions: 10, 20, 40 mg/kg/d
# Text: As apparent from FIG. 5, melanoma 1205Lu develops aggressively in RAG-1 mice after implantation.
# [8] = test system: human microvascular cells; assay: inhibition of endothelial cell cord formation in vitro; type: cell-based; conditions: at cord-inhibiting concentrations
# Text: Endothelial cells have the capacity in vitro to form tubular aggregates resembling capillaries in various early stages of formation. This conversion occurs under relatively specific conditions, in which essential growth factors along with an effective substratum are provided. It has been shown that both the interaction of growth factors with the endothelial cell and its attachment to a substratum activate the NHE. The activation of this exchanger is believed to be required for subsequent morphologic transformation of the endothelial cell into a multicellular tubular structure.
# To assess the effect of compounds on the cord-like structures formed by human microvascular cells when plated in the presence of VEGF (Vascular Endothelial Growth Factor) and basic fibroblast growth factor on a collagen matrix, a standard cord formation assay was used.
# [9] = test system: Human ovarian carcinoma SKOV3; assay: growth inhibition of SKOV3; type: cell-based
# Text: as §1
# [10] = fasting blood glucose in mice; type: in vivo, mouse; conditions: intravenous; vs. Group 1
# Procedure: To study the effect of steroid administrator or the NHE responsible for secretion of insulin, several of the aminosterols from shark liver were administered to fasting mice. Male CD-1 mice were assigned to one of four treatment groups. Whole blood glucose was tested using glucometer (Lifescan Glucometer II and One Touch test strips). Statistical analysis was via one-way analysis of variance (ANOVA) followed by subsequent Bonferonni's t-test.
# [11] = growth and weight gain of C57B mice; type: in vivo, mouse; conditions: 10 mg/kg QTD i.p.; 6 doses, about 1 month
# Procedure: Animals were dosed QTD (i.p.) starting on Day 1. […] Animals receiving 5 mg/kg QTD experienced about a 50% reduction in growth, compared to untreated controls, while animals receiving 1 mg/kg QTD were affected by about 10%. […] They appeared very much like hypophysectamized animals might appear.
# [12] = arterial resistance in the rat after i.v. administration; type: in vivo
# Procedure: A 200-g rat was catheterized in the right carotid artery, and the compound was introduced over a ten-second period to a total dosage of 5 mg/kg. Within 30 seconds, the mean arterial pressure had fallen from about 100 mm Hg to about 70 mm Hg, with a marked reduction in pulse pressure from about 40 mm to about 10 mm. […] If cardiac output was basically unaffected, reduction in blood pressure would have resulted principally from a reduction in system resistance.
# At that time, 40 μg of noradrenaline was introduced.
# [13] = test system: L1210 lymphoblastic leukemia; assay: mouse L1210 leukemia model, survival; type: in vivo; conditions: highest dose, 10 mg/kg every 3 days i.p.
# NHE = assay: direct inhibition of NHE
# Text: Moreover, other aminosterols have shown anti-angiogenic activity. Compounds were subjected to a various assays, including the chick embryo capillary regression assay, the tadpole assay, the assay for inhibition of endothelial cord formation, and the assay for direct inhibition of NHE, as described above, to determine their utilities. As evident from the above data, correlation among the results from the chick, tadpole and in vitro inhibition of endothelial cell cord formation assays is excellent.
# [14] = 20 μg, * = some vascular irritation noted
# [15] = 40 μg, * = some vascular irritation noted
smiles,measurement,setting,value
CC(C)CCC[C@@H](C)[C@H]1CC[C@H]2[C@@H]3CC[C@H]4C[C@@H](NCCCNCCCCNCCCN)CC[C@]4(C)[C@H]3CC[C@]12C [drawing 82],minimal effective concentration,LLC,3 µg/mL
CC(C)[C@@H](CC[C@@H](C)[C@H]1CC[C@H]2[C@@H]3[C@H](O)C[C@H]4C[C@@H](NCCCNCCCCN)CC[C@]4(C)[C@H]3CC[C@]12C)OS(=O)(=O)O [squalamine],inhibition of neutrophil adherence,[1],no inhibition
same,impact on tumor volume,B16 melanoma; squalamine 5 mg/kg/day alone,no significant impact on tumor volume
same,suppression of B16 tumor volume,"B16 melanoma; squalamine s.c., i.p. or oral, C57B mice",dose-dependent suppression of tumor volume
same,body weight and hematologic parameters,B16 melanoma; squalamine-treated mice,no significant depression
same,specificity NHE3 over NHE1,rabbit NHE3,specificity for NHE3 over NHE1
same,inhibition of NHE3 (Km and Vmax),"rabbit NHE3; 5 μg/ml, acid-preloaded 40 mM NH4Cl",inhibited NHE3 with respect to proton concentration at both Km and Vmax levels
same,resting pH of cells,"rabbit NHE3; 5 μg/ml, not acid-preloaded",the resting pH of these cells was also inhibited
same,growth of fibroblast line,[2],no effect
same,tadpole response,[3],blood flow through the capillaries of the tail shut down; also recorded: unaltered blood flow through the fine capillaries of the hands and feet; also recorded: common vascular occlusive effect; also recorded: Vascular occlusion in fine capillaries of tail; also recorded: No effect on vascular flow through hands or feet
same,growth of epithelial line,[4],no effect
same,suppression of growth of human coronary artery smooth muscle,[5],suppress in vitro the growth of human coronary artery smooth muscle
same,"Percentage positive, Assay 1",[6]; 0.65 μg,28%
same,"Percentage positive, Assay 1",[6]; 1.25 μg,18%
same,"Percentage positive, Assay 2",[6]; 1.25 μg,18%
same,"Percentage positive, Mean",[6]; 1.25 μg,18%
same,"Percentage positive, Assay 1",[6]; 2.5 μg,35%
same,"Percentage positive, Assay 2",[6]; 2.5 μg,18%
same,"Percentage positive, Mean",[6]; 2.5 μg,27%
same,"Percentage positive, Assay 1",[6]; 5.0 μg,91%
same,"Percentage positive, Assay 2",[6]; 5.0 μg,57%
same,"Percentage positive, Mean",[6]; 5.0 μg,74%
same,"Percentage positive, Mean",[6]; 20 μg,55%
same,"Percentage positive, Assay 1",[6]; [14],52* %
same,"Percentage positive, Assay 2",[6]; [14],58* %
same,"Percentage positive, Mean",[6]; 40 μg,32%
same,"Percentage positive, Assay 1",[6]; [15],50* %
same,"Percentage positive, Assay 2",[6]; [15],13* %
same,"positive, Assay 1 (count)","[6]; 13-Day Embryo, 5.0 μg",0/26
same,inhibitory effect on older CAM,"[6]; 13-day old chick, ten times 0.65 μg",no inhibitory effect
same,effect on vitelline capillaries / chick embryo,[7],disrupt vitelline capillaries in 3- to 5-day chick embryos; also recorded: No hemorrhage was seen; also recorded: absence of hemolysis; also recorded: especially active
same,suppression of growth of melanoma 1205Lu,human melanoma 1205Lu,clear suppression of tumor growth in a dose-dependent fashion; also recorded: reversible
same,effect on cell viability or proliferation in cord assay,[8],does not appear to profoundly affect cell viability or proliferation
"CC(C)C(CO)(CC[C@@H](C)[C@H]1CC[C@H]2[C@@H]3[C@H](O)C[C@H]4C[C@@H](NCCCNCCCCN)CC[C@]4(C)[C@H]3CC[C@]12C)OS(=O)(=O)O (single isomer, unassigned) [Compound 1437]",anticancer activity against SKOV3,[9],"anticancer activity against the human ovarian carcinoma, SKOV3"
same,tadpole response,[3],"Epithelium covering the embryonic portions of the animal, such as the tail and antennae, began to slough off in sheets; also recorded: the larval skin was observed to shed off in a sheet"
same,fasting blood glucose effect,[10],caused hyperglycemia in mice
CC(C)[C@@H](CC[C@@H](C)[C@H]1CC[C@H]2[C@@H]3[C@H](O)C[C@H]4C[C@@H](NCCCNCCCCNCCCN)CC[C@]4(C)[C@H]3CC[C@]12C)OS(=O)(=O)O [Compound 1436],impact on tumor volume,B16 melanoma; compound 1436 10 mg/kg/every 3 days alone,no significant impact on tumor volume
same,inhibition of rabbit NHE3,"rabbit NHE3; 10 μg/ml, acid-preloaded 40 mM NH4Cl",inhibit rabbit NHE3
same,growth inhibition in mice,[11],growth was almost completely inhibited
same,tadpole response,[3],"common vascular occlusive effect; also recorded: Gradual reduction in overall activity; also recorded: Heart beat remained strong, suggesting nervous system depression; also recorded: Melanocytes over head and tail began to swell; also recorded: dramatic disruption of melanocytes over its head, trunk, and tail; also recorded: No effects are observed on epithelial cell integrity, vascular flow, erythrocyte volume, tissue integrity, muscle fiber striation, or GI tract activity"
same,fasting blood glucose effect,[10],caused hyperglycemia in mice
same,reversibility of effect,[12]; 40 μg noradrenaline,readily reversible
same,persistence of effect,[12]; followed for 30 minutes,without significant change
same,suppression of growth of human coronary artery smooth muscle,[5],suppress in vitro the growth of human coronary artery smooth muscle
same,prolongation of life,[13],significant prolongation of life
same,effect on vitelline capillaries / chick embryo,[7],about the same potency as squalamine
C[C@H](CCC(=O)O)[C@H]1CC[C@H]2[C@@H]3CC[C@H]4C[C@@H](NCCCNCCCCN)CC[C@]4(C)[C@H]3CC[C@]12C [Compound 319],control of B16 melanoma,"B16 melanoma; compound 319 subcutaneous, C57B mice, FIG. 6",almost comparable to squalamine
same,tadpole response,[3],common vascular occlusive effect
same,potency as an NHE inhibitor,NHE,superior to squalamine
same,effect on vitelline capillaries / chick embryo,[7],especially active
